# Experimental data as given in patent US20090203695A1, “Compounds IV” (Biovitrum AB, priority 2007, published 2009).
# Experiments:
# JEG-3 cells [1] = settings: JEG-3 cells (choriocarcinoma cell line); Biol. Reprod. (2007) 76: 203-10; cited from earlier work
# JEG-3 cells [2] = test: [3H]-thymidine incorporation in JEG-3 cells (JEG-3 protocol); format: cell-based
# Description: In JEG-3 cells (choriocarcinoma cell line) leptin is able to stimulate proliferation up to 3 fold (Biol. Reprod. (2007) 76: 203-10). […] The radioactivity incorporated by the cells is an index of their proliferative activity and is measured in counts per minute (CPM) with a liquid scintillation beta counter.
# This finding can be applied to test whether a compound is able to either reproduce the effect of leptin on cell proliferation (leptin receptor agonist mimetic) (i.e., a given compound will cause an increase in incorporated [^3H]-Thymidine by the cells) or to inhibit the effect of leptin (antagonistic effect) by preventing the leptin-mediated increase in [^3H]-thymidine incorporation.
# This approach has the advantage of using a non-recombinant system and has reasonable reproducibility and robustness.
substance,measurement,setting,value
Leptin: hormone synthesized in fat cells that is believed to act in the hypothalamus to reduce food intake and body weight,stimulation of proliferation,JEG-3 cells [1],up to 3 fold
same,concentration of maximal effect on [3H]-thymidine incorporation,JEG-3 cells [2]; FIG. 4,100 nM
same,EC50,"JEG-3 cells [2]; FIG. 4, read-out: EC50, increase in [3H]-thymidine incorporation",2.1 nM
